# Data taken from patent US20200315981A1, “COMPOSITIONS AND METHODS FOR NANOPARTICLE-BASED DRUG DELIVERY AND IMAGING” (Memorial Sloan Kettering Cancer Center, priority 2015, published 2020).
# Like-named read-outs stand apart in the source and are kept apart here.
# System: human prostatic adenocarcinoma cell line PC3
# Assay: Cell viability studies, PC3
# Format: cell-based
# Settings: PC-3, PC3 cells
# Source text: Subsequently, the dextran nanophores therapeutic potential in vitro and in vivo was investigated. […] This drug combination was selected, because it was previously reported that inhibition of the androgen receptor pathway leads to overactivation of the PI3K cascade, while suppression of PI3K upregulates androgen-receptor-mediated signaling. […] Doxorubicin and the MEK inhibitor AZD6244 (Selumetinib®) was co-loaded into dextran nanophores, since MEK is a downstream target of EGFR.
smiles,measurement,setting,value
COc1cccc2c1C(=O)c1c(O)c3c(c(O)c1C2=O)C[C@@](O)(C(=O)CO)C[C@@H]3O[C@H]1C[C@H](N)[C@H](O)[C@H](C)O1 [doxorubicin],IC50,"FIG. 6, read-out: IC50",6.5 µM
same,IC50,"FIG. 9D, read-out: doxorubicin concentration causing 50% reduction in the viability of PC3 cells",8 µM
